Among the test systems are MDA-MB-468 breast; 786-0 renal; A498 renal; ACHN renal; DU-145 prostate; EKVX NSCLC; HCC-2998 colon; HCT-15 colon; HS 578T breast; KM12 colon; MALME-3M melanoma; MCF7 breast; MDA-MB-231 breast; NCI-H226 lung; NCI-H23 lung; OVCAR-3 ovarian; OVCAR-4 ovarian; OVCAR-5 ovarian; OVCAR-8 ovarian; RXF 393 renal; SK-MEL-2 melanoma; SK-MEL-5 melanoma; SK-OV-3 ovarian; SNB-19 CNS; SNB-75 CNS; SW-620 colon; T-47D breast; TK-10 renal; UO-31 renal.

What all share (assay): NCI anticancer screen, dose series, 48 h

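Values below derive from 48-hour exposures of cells grown in 96-well plates, with endpoints linearly interpolated between the two concentrations bracketing the appropriate inhibition level. GI50 = concentration required for 50% inhibition of growth. The concentration for full growth arrest is given as TGI.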 Where only a bound is given, the exact number is not on record here.

Consider `CCCCCC(=O)O[C@]1(C(C)=O)CCC2C3CCC4=CC(=O)CC[C@]4(C)C3CC[C@@]21C` (some centres undefined), for which, in the test on MDA-MB-468 breast, the GI50 was 1730 nM and the TGI worked out at 6.79 µM.
Taken in the same sequence, the figures for `Cc1cnc(C(=O)NNc2nc3sc4c(c3c(=O)[nH]2)C(C)CCC4)cn1` (centres undefined) were 1810 nM and 6.08 µM.
Taken in the same sequence, the figures for `COc1ccc(C(O)c2cc3c(N)c(C(=O)Nc4cccc5ccccc45)sc3nc2C)cc1` (centres undefined) were 2640 nM and over 100 µM.
Taken in the same sequence, the figures for `O=C1c2cc3c(cc2-c2c1c1ccc(Cl)cc1c(=O)n2C[C@H](O)CO)OCO3` were 17.4 nM and 0.0553 µM.
Regarding `COc1cc(/C=C/c2cc(/C=C/c3ccc(O)c(OC)c3)n(C(=O)c3ccccc3Br)n2)ccc1O`, in the test on MDA-MB-468 breast, the GI50 was 2240 nM and the TGI was 5.81 µM.
As to `Fc1ccc(NC(c2ccc(F)cc2)C2CCN(CCCCc3ccccc3)CC2)cc1` (centres undefined), in the test with MDA-MB-468 breast, the GI50 was 1720 nM and the TGI worked out at 3.43 µM.
Taken in the same sequence, the figures for `CCSCC1CC(O)(c2ccccc2)C(c2ccccc2)C(c2ccc(F)cc2)O1` (centres undefined) were 2940 nM and 10.4 µM.
In the case of `Nc1nc(=S)c2ncn(C3OC(COP(=O)(O)O)C(O)C3O)c2[nH]1` (centres undefined), in the test on MDA-MB-468 breast, the GI50 was 478 nM and the TGI came out at 6.3 µM.
Taken in the same sequence, the figures for `ClCCOCCn1cnc2c(Cl)nc(Cl)nc21` were 3160 nM and 25 µM.
Taken in the same sequence, the figures for `Clc1ccc2oc3c(NCCCn4ccnc4)c4ccccc4nc3c2c1` were 14700 nM and 69.2 µM.
Taken in the same sequence, the figures for `CCc1ccc(Nc2cc(C)c3ccc(O)cc3n2)cc1` were 3570 nM and 12.8 µM.
Regarding `CNCc1ccc(-c2cc(-c3nc(-c4ccc(S(=O)(=O)C(C)C)cc4)cnc3N)on2)cc1`, in the test on MDA-MB-468 breast, the GI50 was 2260 nM and the TGI worked out at 20.3 µM.
Taken in the same sequence, the figures for `Cc1cc(Cl)nc(N(CCNc2ccnc3cc(Cl)ccc23)Cc2ccco2)n1` were 1620 nM and 3.46 µM.
Taken in the same sequence, the figures for `COc1cc2nnc3c4cccnc4[nH]c3c2cc1OC` were 225 nM and 1.22 µM.
In the case of `CCN(CC)c1ccc2nc3ccc(=[N+](CC)CC)cc-3oc2c1`, in the test on MDA-MB-468 breast, the GI50 was 63.1 nM and the TGI came out at 0.231 µM.
Taken in the same sequence, the figures for `S=C1SCN(Cc2ccccc2)CN1Cc1ccco1` were 1040 nM and 13.5 µM.
Taken in the same sequence, the figures for `Cn1ccnc1C(=O)/C=C/C=C/c1ccc(C(=O)Nc2ccc(F)cc2)cc1` were 1510 nM and 10.5 µM.
With `COc1ccc(-c2nc3ccc(Cc4ccc5nc(-c6ccc(OC)cc6)[nH]c5c4)cc3[nH]2)cc1`, in the test on MDA-MB-468 breast, the GI50 is 26 nM and the TGI came out at 0.155 µM.
In the case of `O=C(Nc1ccc(OC(F)(F)Cl)cc1)c1cnc(N2CC[C@@H](O)C2)c(-c2ccn[nH]2)c1`, in the test with MDA-MB-468 breast, the GI50 is 4890 nM and the TGI is 23.1 µM.
Taken in the same sequence, the figures for `CCCCS(=O)c1sc2nc(-c3cccs3)cc(-c3ccccc3)c2c1N` (centres undefined) were 9930 nM and 67.3 µM.
Taken in the same sequence, the figures for `CC[C@H](C)[C@H](NC(=O)[C@H]1CCCCN1C)C(=O)N(C)[C@H](C[C@@H](OC(C)=O)c1nc(C(=O)NC23CC(C(=O)OC)(C2)C3)cs1)C(C)C` were 0.292 nM and 0.0714 µM.
As for `CCNC(=O)N1CCc2cc(OC)c(OCCc3ccc(OC)cc3)cc2C1c1ccc(Cl)cc1C` (centres undefined), in the test on MDA-MB-468 breast, the GI50 was 2010 nM and the TGI came out at 6.43 µM.
Taken in the same sequence, the figures for `COc1ccc(-c2[nH]c3ccc(OC)cc3c2C=C(C#N)C#N)cc1` were 494 nM and over 100 µM.
Taken in the same sequence, the figures for `Cc1cc(Br)c(NC(=O)c2c(-c3c(Cl)cccc3Cl)noc2C)c(Br)c1` were over 100000 nM and over 100 µM.
Taken in the same sequence, the figures for `CCC(c1ccccc1)c1noc(CCN(CC)CC)n1` (centres undefined) were 2460 nM and 8.05 µM.
On to `CC(=O)NC1C(O[C@H]2C[C@H]3[C@@H]4CC=C5C[C@@H](O)CC[C@]5(C)[C@H]4CC[C@]3(C)[C@H]2[C@H](C)C(=O)CCC(C)C)OCC(O)C1O` (some centres undefined), for which, in the test with MDA-MB-468 breast, the GI50 is 3340 nM and the TGI is 10.4 µM.
Taken in the same sequence, the figures for `CN1CCN(c2c(F)cc(NC3=C(Cl)C(=O)c4ncccc4C3=O)cc2F)CC1` were 1360 nM and 3.21 µM.
Taken in the same sequence, the figures for `O=C(COc1ccc(/C=C2\Oc3ccccc3C2=O)cc1)Nc1nc2ccccc2s1` were 487 nM and 75.2 µM.
Taken in the same sequence, the figures for `CC(=O)Oc1ccc(C2=Cc3ccc(OC(C)=O)cc3OC2C)cc1` (centres undefined) were 5960 nM and 51.4 µM.
As to `COc1ccc(-c2cc(/C=C/C(=O)c3ccc(N)cc3)[nH]n2)cc1OC`, in the test on MDA-MB-468 breast, the GI50 is 1550 nM and the TGI turned out to be 3.48 µM.
With `COc1cccc2nc(Nc3cccc(NC(=O)c4ccc(CN5CCCN(C)CC5)c(C(F)(F)F)c4)c3)ccc12`, the GI50 in the test on 786-0 renal was 1720 nM; in the test with A498 renal, 13.5 µM; with ACHN renal it was 1870 nM; with DU-145 prostate it was 2190 nM; with EKVX NSCLC it was 1720 nM; with HCC-2998 colon, 1710 nM. The GI50 with HCT-15 colon is 1620 nM; in the test with HS 578T breast it was 2460 nM; in the test on KM12 colon it was 2490 nM; with MALME-3M melanoma, 1720 nM; in the test on MCF7 breast it was 1590 nM; with MDA-MB-231 breast, 1830 nM. Also, the GI50 with MDA-MB-468 breast is 1560 nM; in the test with NCI-H226 lung it was 1940 nM; in the test with NCI-H23 lung, 1680 nM; in the test on OVCAR-3 ovarian, 2140 nM; with OVCAR-4 ovarian it was 2670 nM; in the test with OVCAR-5 ovarian, 1710 nM. Besides, the GI50 in the test with OVCAR-8 ovarian was 2030 nM; in the test on RXF 393 renal, 1660 nM; with SK-MEL-2 melanoma, 2150 nM; in the test with SK-MEL-5 melanoma, 1710 nM; in the test with SK-OV-3 ovarian, 4.33 µM; with SNB-19 CNS it was 1720 nM. In addition, the GI50 in the test on SNB-75 CNS is 1520 nM; in the test with SW-620 colon it was 1750 nM; with T-47D breast, 5.43 µM; in the test with TK-10 renal, 4.91 µM; in the test with UO-31 renal, 1740 nM. Besides, the TGI worked out at 3.35 µM with 786-0 renal; 31.4 µM with A498 renal; 3.62 µM with ACHN renal; 4.91 µM in the test on DU-145 prostate; 3.1 µM in the test on EKVX NSCLC; 3.09 µM in the test on HCC-2998 colon. Further, the TGI stood at 3.03 µM with HCT-15 colon; 8.09 µM with HS 578T breast; 6.14 µM in the test on KM12 colon; 3.12 µM in the test with MALME-3M melanoma; 3000 nM with MCF7 breast; 3.4 µM in the test on MDA-MB-231 breast. In addition, the TGI with MDA-MB-468 breast is 2.98 µM; in the test with NCI-H226 lung, 4.65 µM; with NCI-H23 lung, 3.07 µM; in the test with OVCAR-3 ovarian it was 5.45 µM; with OVCAR-4 ovarian it was 10.7 µM; in the test with OVCAR-5 ovarian, 3.29 µM. Also, the TGI in the test with OVCAR-8 ovarian came out at 4.75 µM; with RXF 393 renal, 3.24 µM; with SK-MEL-2 melanoma, 4.93 µM; with SK-MEL-5 melanoma it was 3.08 µM; in the test with SK-OV-3 ovarian, 21.3 µM; in the test on SNB-19 CNS, 3.17 µM. Besides, the TGI was determined as 7.97 µM in the test on SNB-75 CNS; 3.24 µM with SW-620 colon; 41.4 µM with T-47D breast; 19.3 µM in the test on TK-10 renal; 3.43 µM in the test on UO-31 renal.
Take `C#Cc1ccc(-n2c(/C=C/c3ccc(O)cc3)nc3ncccc3c2=O)cc1`: in the test on MDA-MB-468 breast, the GI50 was 2310 nM and the TGI came out at 7.08 µM.
Taken in the same sequence, the figures for `COc1ccc(/C=C2\CCC/C(=C\c3ccc(OC)c(OC)c3)C2=O)cc1OC` were 940 nM and 5.47 µM.
Taken in the same sequence, the figures for `COc1ccccc1C1c2cc3c(cc2OC2(OC)COC(=O)C12)OCO3` (centres undefined) were 20200 nM and 95.4 µM.
Taken in the same sequence, the figures for `CC(C)[C@@H]1CC[C@]2(CO2)[C@@H]2C(=O)OCC(C(=O)O)=C[C@H]21` were 443 nM and over 27.2 µM.
As to `Nc1nccc(-c2c(-c3ccc(F)cc3)nn3cc(C(F)(F)F)ccc23)n1`, in the test with MDA-MB-468 breast, the GI50 is over 25000 nM and the TGI is over 25 µM.
Taken in the same sequence, the figures for `Cc1cccc(Cn2cc(CO)c3cnccc32)c1` were 6340 nM and 43.3 µM.
Taken in the same sequence, the figures for `COc1cc(-c2nccc3[nH]c(-c4ccc5cc[nH]c5c4)nc23)cc(OC)c1OC` were 17.6 nM and 1.56 µM.
Consider `COCCN(Cc1ccc(F)cc1)c1ccc(CO)c(Cl)c1`, for which, in the test with MDA-MB-468 breast, the GI50 is 40.6 nM and the TGI came out at 0.163 µM.
For `COc1ccc2c(c1)c(/C=N/Nc1ccnc3cc(Cl)ccc13)cn2C`, in the test on MDA-MB-468 breast, the GI50 is 217 nM and the TGI came to 0.456 µM.
Taken in the same sequence, the figures for `COCCOC1=C(Cl)C(=O)c2ccccc2C1=O` were 1590 nM and 3.22 µM.
Taken in the same sequence, the figures for `CCCCCCCCCCCCCCNC(=O)Nc1ccc(Cl)c(Cl)c1` were 2820 nM and 9.82 µM.
Taken in the same sequence, the figures for `COc1ccccc1CNCCN1C(=O)c2ccc3c4c(ccc(c24)C1=O)C(=O)N(CCNCc1ccccc1OC)C3=O` were 426 nM and 0.893 µM.
As to `COc1ccccc1Oc1nccc(-c2c(-c3ccc(F)cc3)ncn2C2CCNCC2)n1`, in the test on MDA-MB-468 breast, the GI50 was 3170 nM and the TGI came to 14.3 µM.

The values are drawn from PubChem BioAssay (NCI).
